This note sets out measurements from patent US7534871B2, “Preparation and use of carbohydrate-based bicyclic ring structures with antimicrobial and cytostatic activity” (Kemin Pharma B.V.B.A., priority 2004, dated 2009).

≈ marks a conversion by molar mass, not a printed value.

One data set has as its system HSV-1 (KOS). Description: Anti-viral activity: HSV-1-induced cytopathicity in human embryo fibroblast E6SM cell cultures. The format is cell-based, herpes simplex virus (HSV). The settings on record: Human alphaherpesvirus 1, 50%. (Cytopathic effects are the visible damage that an infection or toxin causes in cultured cells.)
The test system of another data set is HSV-2 (G). Description: Anti-viral activity: HSV-2-induced cytopathicity in human embryo fibroblast E6SM cell cultures. The data set is classed as cell-based, herpes simplex virus (HSV). The settings on record: Human alphaherpesvirus 2, 50%.
For the next data set, the system named is VV. The experiment in a line: microbe, parasite or virus in culture. The data set is classed as cell-based. The settings on record: Orthopoxvirus vaccinia, E6SM, read-out: EC50 VV (E6SM).
Another data set deals with VZV OKA. Description: microbe, parasite or virus in culture. The format is cell-based, varicella zoster virus (VZV). The settings on record: Human alphaherpesvirus 3, HEL, read-out: EC50 VZV (HEL) OKA.
The test system of a further data set is VZV YS. The experiment in a line: Anti-viral activity: VZV-induced plaque formation in HEL cell cultures, YS strain. The settings on record: Human alphaherpesvirus 3, VZV-induced plaque formation in human embryonic lung HEL cell cultures, 50%. The data set is classed as cell-based, varicella zoster virus (VZV).
The subject of another data set is CMV AD-169 strain. Description: Anti-CMV activity: plaque reduction in HEL cells, AD-169 strain. The data set is classed as cell-based, human cytomegalovirus (CMV). The settings on record: Human betaherpesvirus 5, AD169, HEL; Table 6; reduce virus plaque formation by 50%; virus input 100 PFU; read-out: Anti-CMV activity IC50 AD-169 strain.
The test system of a further data set is CMV Davis strain. Description: Anti-CMV activity: plaque reduction in HEL cells, Davis strain. The format is cell-based, human cytomegalovirus (CMV). The settings on record: Human betaherpesvirus 5, HEL; Table 6; reduce virus plaque formation by 50%; virus input 100 PFU; read-out: Anti-CMV activity IC50 Davis strain.
For data set [1], the system named is murine leukemia cells (L1210/0). The experiment in a line: Cytostatic activity: inhibition of proliferation of L1210/0 cells. The format is cell-based. The settings on record: Mus musculus, L1210/0; 50% inhibitory concentration, cell proliferation; read-out: IC50 L1210/0. The protocol:
(§1) The compounds were tested for anti-tumor activity via the inhibitory effects on the proliferation of murine leukemia cells (L1210/0), murine mammary carcinoma cells (FM3A), human T-lymphocyte cells (Molt4/C8, CEM/0) and human cervix carcinoma cells (HeLa).

In data set [2] the test system is murine mammary carcinoma cells (FM3A). The experiment in a line: Cytostatic activity: inhibition of proliferation of FM3A cells. The data set is classed as cell-based. The following applies: Mus musculus, 50% inhibitory concentration, cell proliferation, read-out: IC50 FM3A/0. On the procedure: as §1
The test system of data set [3] is human T-lymphocyte cells (Molt4/C8). Description: Cytostatic activity: inhibition of proliferation of Molt4/C8 cells. The settings on record: Molt4/C8, 50% inhibitory concentration, cell proliferation, read-out: IC50 Molt4/C8. The format is cell-based. On the procedure: as §1
The subject of data set [4] is human T-lymphocyte cells (CEM/0). Description: Cytostatic activity: inhibition of proliferation of CEM/0 cells. The format is cell-based. The settings on record: CCRF-CEM, 50% inhibitory concentration, cell proliferation, read-out: IC50 CEM/0. The protocol:
as §1

For another data set, the system named is HEL cells. The experiment in a line: Cytotoxicity: alteration of cell morphology (MCC). The format is cell-based, human. The following applies: minimum cytotoxic concentration that causes a microscopically detectable alteration of cell morphology.
A short description of data set [5]: Cytotoxicity: inhibition of HEL cell growth (CC50). The data set is classed as cell-based. The settings on record: human; concentration required to reduce cell growth by 50%; HEL cells, three days. The protocol: The medium was then replaced by MEM containing various concentrations of the test compound. After three days incubation at 37° C., when the cell monolayer was 70% confluent, the cell number was determined with the Coulter counter. The minimum cytotoxic concentration was defined as the concentration required to reduce cell growth by 50%.

Data set [6] relates to human cervix carcinoma cells (HeLa). Description: Cytostatic activity: inhibition of proliferation of HeLa cells. The settings on record: 50% inhibitory concentration, cell proliferation. The data set is classed as cell-based. On the procedure: as §1

Usually EC50 stands for the concentration that produces a half-maximal response. One may read the CC50 as the concentration giving 50% cytotoxicity. As to `CO[C@@H]1[C@@H](OC)[C@H](Sc2ccccc2)O[C@@H]2CO[C@@H](c3ccccc3)O[C@@H]12` [KPE00001045], the EC50 was over 3.2 µg/mL in the data set with HSV-1 (KOS); over 3.2 µg/mL in the data set on HSV-2 (G); over 3.2 µg/mL with VV; over 2 µg/mL with VZV OKA; over 2 µg/mL with VZV YS. The IC50 in the data set on CMV AD-169 strain is over 5 µg/mL; in the data set with CMV Davis strain, over 5 µg/mL; in data set [1], over 200 µg/mL; in data set [2] it was over 200 µg/mL; in [3], over 200 µg/mL; in data set [4], over 200 µg/mL. Further, the “Cytotoxicity Cell morphology (MCC)” value with HEL cells was found to be 20 μg/ml. The same compound showed a CC50 at 3 days in data set [5] of 50 µg/mL (≈ 129 µM).

On to `O[C@@H]1[C@@H](O)[C@H](Sc2ccccc2)O[C@@H]2CO[C@@H](c3ccccc3)O[C@@H]12` [KPE00001048], for which the EC50 was over 80 µg/mL in the data set with HSV-1 (KOS); over 80 µg/mL in the data set with HSV-2 (G); over 80 µg/mL with VV; over 50 µg/mL in the data set with VZV OKA; over 50 µg/mL in the data set with VZV YS. Moreover, the IC50 with CMV AD-169 strain was 33 µg/mL (≈ 91.6 µM); in the data set with CMV Davis strain it was 35 µg/mL (≈ 97.1 µM); in [1], 103 ± 10 µg/mL (≈ 286 µM); in data set [2], 171 ± 41 µg/mL (≈ 474 µM); in data set [3], 78 ± 12 µg/mL (≈ 216 µM); in [4], 75 ± 31 µg/mL (≈ 208 µM). In addition, the “Cytotoxicity Cell morphology (MCC)” value in the data set on HEL cells was over 50 μg/ml. Besides, the CC50 at 3 days in data set [5] is over 50 µg/mL.

Regarding `CCO[C@@H]1[C@@H](OCC)[C@H](Sc2ccccc2)O[C@@H]2CO[C@@H](c3ccccc3)O[C@@H]12` [KPE00001050], the EC50 was over 3.2 µg/mL in the data set on HSV-1 (KOS); over 3.2 µg/mL in the data set on HSV-2 (G); over 3.2 µg/mL in the data set with VV; over 5 µg/mL in the data set on VZV OKA; over 5 µg/mL with VZV YS. For the same compound, the IC50 in the data set with CMV AD-169 strain was over 50 µg/mL; with CMV Davis strain it was over 50 µg/mL; in [1] it was over 200 µg/mL; in data set [2], over 200 µg/mL; in data set [3], over 200 µg/mL; in data set [4], over 200 µg/mL. In data set [6], the IC50 is over 200 µg/mL. In addition, the “Cytotoxicity Cell morphology (MCC)” value with HEL cells is over 50 μg/ml. In data set [5], this compound yielded a 50% cytotoxic concentration (CC50) at 3 days of over 50 µg/mL.
